Experimental data: patent publication US8198405B2, “Stabilized alpha helical peptides and uses thereof” (Dana-Farber Cancer Institute, Inc., priority 2003, dated 2012)
Where a SMILES comes first, the peptide text is derived from it. Bridges are numbered along the chain shown (N, C = ends). [ ]: non-standard residue; d: D form. S5 = C=CCCC[C@](C)(N)C(=O)O; Nle = CCCC[C@H](N)C(=O)O

What was measured:
[1] = test system: REH, MV4; 11, and SEMK2 cell lines; assay: Apoptosis induction assays; format: cell-based
Jurkat leukemia cells = assay: Apoptosis by annexin V flow cytometry; format: cell-based; conditions: 10 μM, 20 hours
Description: Indeed, the pro-apoptotic effect of 10 uM SAHB3BIDA and B on “wild-type” Jurkats was abolished in the BCL-2 overexpressing cells. […] The observed pro-apoptotic effects are selectively abolished by gly to glu mutation of SAHB3BIDA and cellular overexpression of BCL-2, findings which underscore that SAHB3BID compounds function via the defined mitochondrial apoptosis pathway.

BCL-2 = target: T1, BCL-2 (Homo sapiens, UniProt P10415); assay: Fluorescence polarization direct binding assay; conditions: fluorescinated compounds 25 nM, GST-BCL2 25 nM-1000 nM (FIG. 11d)
T1 construct: containing the plasmid encoding C-terminal deleted GST-BCL-2; made in house; host or cells: Escherichia coli BL21 (DE3)
T1 sequence (P10415 1-218 limits assumed): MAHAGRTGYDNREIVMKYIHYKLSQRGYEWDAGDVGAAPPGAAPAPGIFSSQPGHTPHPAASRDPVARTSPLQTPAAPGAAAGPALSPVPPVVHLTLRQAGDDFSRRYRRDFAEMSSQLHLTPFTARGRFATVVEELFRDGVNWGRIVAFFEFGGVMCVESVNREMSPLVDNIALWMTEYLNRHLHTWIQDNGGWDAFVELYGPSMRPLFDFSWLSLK

BAX = target: T2, BAX (Homo sapiens, UniProt Q07812); assay: Fluorescence polarization direct binding assay; conditions: full-length BAX
T2 construct: Full-length BAX protein was prepared as previously described (Suzuki et al, Cell, 103:645); made in house
T2 sequence (Q07812 whole entry): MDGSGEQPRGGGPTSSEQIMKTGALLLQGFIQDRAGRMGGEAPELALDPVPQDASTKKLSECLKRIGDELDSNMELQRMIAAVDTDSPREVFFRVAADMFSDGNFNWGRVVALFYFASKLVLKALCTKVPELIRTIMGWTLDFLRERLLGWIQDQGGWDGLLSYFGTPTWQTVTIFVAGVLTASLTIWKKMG

[2] = test system: purified mouse liver mitochondria; assay: Cytochrome c release assay (ELISA), wild-type mitochondria; format: biochemical; conditions: wild-type versus Bak-/- mitochondria
Description: In order to assess the biological activity of SAHB3BID compounds in vitro, cytochrome c release assays were performed using purified mouse liver mitochondria. Mitochondria (0.5 mg/mL) were incubated for 40 minutes with 1 μM and 100 nM of SAHB3BID compounds and then supernatants and mitochondrial fractions isolated and subjected to cytochrome c ELISA assay. Background cytochrome c release (10-15%) was subtracted from total release for each sample, and the percent actual cytochrome c release was determined (FIG. 12). […] In each case, except for the double cross-linked SAHB3BIDE (which may lack critical amino acids for biological activity or, in this case, be overly constrained by the dual cross-links), there is approximately a doubling of cytochrome c release in response to 1 μM SAHB3BID compounds compared to the unmodified peptide (FIG. 12a). […] BID mutants with defective BH3 domains can promote BAK-independent cytochrome c mobilization (Scorrano et al, Dev Cell, 2:55), and the highly hydrophobic BID helix 6 has been implicated in this activity (L. Scorrano, S. J. Korsmeyer, unpublished results).
Similar to the above experiment, mouse liver mitochondria from wild-type and Bak−/− mice were exposed to the compounds at various concentrations and assayed for cytochrome c release at 10 and 40 minute intervals. […] Thus, SAHB3BIDA and B display a 10-25 fold enhancement in cytochrome c release activity at the 40 minute time point.

Kd (BCL-2): 483 nM
BAX binding, in words (BAX): measurable binding
SMILES: CCCC[C@H](NC(=O)[C@]1(C)CCCC=CCCC[C@](C)(NC(=O)[C@H](C)NC(=O)[C@H](CC(C)C)NC(=O)[C@H](Cc2c[nH]cn2)NC(=O)[C@H](CCCNC(=N)N)NC(=O)[C@H](C)NC(=O)[C@@H](NC(=O)[C@H](CC(N)=O)NC(=O)[C@H](CCCNC(=N)N)NC(=O)[C@@H](NC(=O)[C@@H](NC(=O)[C@H](CC(=O)O)NC(=O)[C@H](CCC(=O)O)NC(C)=O)[C@@H](C)CC)[C@@H](C)CC)[C@@H](C)CC)C(=O)N[C@@H](C(C)C)C(=O)N[C@@H](CCC(=O)O)C(=O)N[C@@H](CC(=O)O)C(=O)N1)C(=O)N[C@@H](CC(=O)O)C(=O)N[C@@H](CCCNC(=N)N)C(=O)N[C@@H](CO)C(=O)N[C@H](C(=O)N[C@@H](Cc1c[nH]c2ccccc12)C(N)=O)[C@@H](C)CC [SAHB3BID(G→E)A] (Ac-EDIIRNIARHLA[S5]VED[S5][Nle]DRSIW-NH2; staple 13-17; N-terminus assumed)
apoptosis induction, in words [1]: no effect
apoptosis induction, in words (Jurkat leukemia cells): no effect
Bak dependence of cytochrome c release, in words [2]: only Bak-independent cytochrome c release
